The term melting point denotes the temperature, or range, at which the solid turns liquid. In turn, `CN1CCc2ccc(C(=O)CCC(=O)N3CCC(c4ccc(Cl)cc4)CC3)cc2CC1` yielded a melting point of 143 to 145 °C.

The molecule `Cc1nc2cccc(O)c2o1` displayed a melting point of 152 to 154 °C.

Molecule `COC(=O)c1ccc(CCC(C)(C)NCC(O)c2cc3ccccc3o2)cc1` (stereo not given) showed a melting point of 141 to 145 °C.

Molecule `C#CCOCc1nnc(Cl)c2ccccc12` returned a melting point of 131 to 132 °C.

On to `CC(C)(C)NC(=O)C(=O)c1ccccc1`, for which the melting point lay in the range of 76 to 77 °C.

In the case of `COc1ccc(CNc2nc(SC)ncc2C(O)c2nccn2C)cc1Cl` (stereo not given), the melting point was in the range of 179 to 180 °C.

In turn, `Nc1cc2cccc(F)c2oc1=O` came in with a melting point of 173 to 174 °C.

On to `COc1ccc(C2(C#Cc3ccnc(N)n3)CCC(=O)CC2)cc1OC1CCCC1`, for which the melting point lay in the range of 68 to 70 °C.

Molecule `O=C(c1nc(-c2ccccc2)nc2ccccc12)N1CCOCC1` gave a melting point of 148 °C.

Take `O=C(c1ccccc1)c1cnc2cnccc2c1O`: the melting point is 228 °C.

`CSC(=C[N+](=O)[O-])NCCCCc1nccs1` had a melting point of 75.5 to 76 °C.

Turning to `COC(=O)C(C)(C)OCc1cc2cc(C(F)(F)F)ccc2n1S(=O)(=O)c1cc(OC)ccc1OC`, the melting point lay within 130 to 132 °C.

`CCOC(=O)c1cn2c3c(c(F)c(F)c(F)c3c1=O)C(C(=O)OC(C)(C)C)(C(=O)OC(C)(C)C)CN2C`: the melting point was in the range of 169 to 173 °C.

`C=CCOc1ccc2c(ccc(=O)n2CC=C(C)C)c1` displayed a melting point of 80 to 82 °C.

Regarding `CC(C)C1C(CO)=C(c2ccc(F)cc2)C=CN1C12CC3CC(CC(C3)C1)C2` (stereo not given), the melting point is 143 to 145 °C.

As to `CC(C)(C)[C@H]1CC[C@@H](Nc2ncnc(I)c2Cl)CC1`, the melting point lay within 89 to 90 °C.

`CCOC(=O)NC(=O)c1c(Cl)ccc2c(C(F)(F)F)c(OC)ccc12` had a melting point of 169 to 171 °C.

`Fc1ccc(NC(=S)c2ccccn2)cc1` gave a melting point of 82 to 85 °C.

As to `COC(=O)c1cccc(-c2csc(N=C(N)N)n2)n1`, the melting point stood at 240 °C.

`CCOC(=O)CC(C(=O)c1ccc(OC2CCN(C(=O)OC(C)(C)C)CC2)cc1)c1ccccn1` (stereo not given) returned a melting point of 118 to 120 °C.

Regarding `COc1ccc(C(=O)Cc2c(Cl)cncc2Cl)c2c1CC1(CCCC1)O2`, the melting point fell in the range of 70 to 72 °C.

With `CCOC(=O)Cc1csc(-c2cc3cccc(N(C)S(=O)(=O)c4cccs4)c3[nH]2)n1`, the melting point was in the range of 117 to 118 °C.

Turning to `Cc1cnc(N2CCN(CC[C@H]3CC[C@H](NC(=O)CC4CCOCC4)CC3)CC2)c2ccoc12`, the melting point worked out at 206 °C.

`CCCOn1c(C)nc(N2CCc3ccccc3CC2)c(C#N)c1=O` had a melting point of 132 to 134 °C.

Molecule `COc1ccc(/C=C/c2cc(Cl)cc(Cl)c2)cc1` displayed a melting point of 62 to 64 °C.

The molecule `CNc1c(N)n(CC(C)(C)C)c(=O)[nH]c1=O` had a melting point of 217 to 220 °C.

`CC(C)(C(=O)COc1cccc2ccccc12)C1OCCO1` registered a melting point of 69 °C.

Molecule `CCOCn1c(C(F)(F)F)cc(C#N)c1-c1ccc(Cl)cc1` displayed a melting point of 83 to 84.5 °C.

`CCCCOC1(N)C=CC(NC(=O)CBr)=CC1` (stereo not given) showed a melting point of 131 to 134 °C.

Turning to `COC(=O)c1ccc2c(c1)OCCC2NC(=O)OCc1ccccc1` (stereo not given), the melting point lay in the range of 140 to 142 °C.

The molecule `O=C(c1cc(C(F)(F)F)cc(C(F)(F)F)c1)N1CCNCCC1c1ccccc1` (stereo not given) returned a melting point of 151 to 153 °C.

In turn, `O=C(OC1CCCCC1)c1ncn2c1[C@@H]1CCCN1C(=O)c1c-2cccc1C(F)(F)F` had a melting point of 193 to 194 °C.

With `O=C(Cl)N1CCC(Oc2cc(Cl)cc(Cl)c2)C1` (stereo not given), the melting point is 105 to 107 °C.

The molecule `O=C(c1ccccc1)N1CCN(c2ccccc2)CCn2c1nc1ccccc12` had a melting point of 217 to 220 °C.

`CCOC(=O)Nc1nc(C)c(-c2nc3ccccc3c(=O)n2-c2ccccc2)s1` registered a melting point of 248 to 251 °C.

For the molecule `CS(=O)(=O)c1ccc(Cl)c(-c2n[nH]c3nc(Oc4ccc(F)cc4F)ncc23)c1`, the melting point came out at 252 °C.

With `CCOC(=O)c1cn(CCCl)c2cc(Cl)ccc2c1=O`, the melting point was 208 to 210 °C.

The molecule `Cc1cn2c(=O)c3c(Cl)cccc3nc2s1` gave a melting point of 235 to 236 °C.

Regarding `COc1ccc2c(c1)C(=O)C(CN1CCC(O)(c3ccc(F)cc3)CC1)CC2` (stereo not given), the melting point was in the range of 193 to 195 °C.

Take `CCOC(=O)C1=C(C)NC(=NC#N)NC1c1cccc([N+](=O)[O-])c1` (stereo not given): the melting point lay in the range of 250 to 252 °C.

Take `CCC(CC)OC(=O)c1ccc(C(=O)NS(=O)(=O)c2cccc(C(=O)NCCc3ccccc3)c2)cn1`: the melting point lay in the range of 189 to 191 °C.

The molecule `N#Cc1ccc(C#CCCC(=O)O)cc1` gave a melting point of 149 to 152 °C.

In turn, `O=C(O)CCc1cn(Cc2ccccc2)c2ccccc12` returned a melting point of 110 to 112 °C.

`CCCCC[C@@H](CNC(=O)Nc1c(OC(C)C)c(C)nn1-c1ccccc1)c1cccc2c1OCO2` displayed a melting point of 126 °C.

With `COc1cc(N)c(Cl)cc1-c1noc(C2CCN(CC3CCCO3)CC2)n1` (stereo not given), the melting point worked out at 148 °C.

`CCOC(=O)CCc1cc(O)nn1C` returned a melting point of 132 to 135 °C.

Molecule `CC(=O)c1cc2c(Cl)cccc2s1` returned a melting point of 113 to 115 °C.

The molecule `FC(F)(F)c1nnnn1-c1cccc2ccccc12` returned a melting point of 108 °C.

In turn, `COC(=O)c1ccc2[nH]c3ccccc3c2c1` came in with a melting point of 180 to 181 °C.

In turn, `COc1ccc(-n2cc(CCCO)c(C(C)C)n2)nn1` showed a melting point of 122 to 123 °C.

`CC1(C)C2CCC(C2)C1(C)F` (stereo not given) displayed a melting point of 93 to 94 °C.

`CCOC(=O)NS(=O)(=O)c1c(C(=O)OCC)c(Cl)nn1C` returned a melting point of 82 to 85 °C.

Turning to `CCOC(=O)c1ncn2c3cccc(I)c3c(=O)n(C)c12`, the melting point lay within 266 to 267 °C.

Turning to `Cc1ccc(S(=O)(=O)OC2CCC(C)C2)cc1` (stereo not given), the melting point is less than 30 °C.

`CN1C(=O)C(c2cccc(Br)c2)(c2c[nH]c(C=O)c2)N=C1N` (stereo not given) yielded a melting point of 142 to 151 °C.

Molecule `N#Cc1ccc(OCCCN2CCN(C(CC(=O)O)c3cccnc3)C(=O)C2=O)cc1` (single isomer, unassigned; (-)) showed a melting point of 199 to 200 °C.

Turning to `CCC(C(=O)c1ccc(Cl)cc1)n1ncn(-c2ccc(N3CCN(c4cc(C)cc(C)n4)CC3)nc2)c1=O` (stereo not given), the melting point was 113 °C.

`O=C1c2cccc(NC3CCCC3)c2C(=O)c2cccc(NC3CCCC3)c21`: the melting point was 198 to 201 °C.

Turning to `O=C(Nc1cc(Cl)cc(Cl)c1)c1ccccc1SSc1ccccc1C(=O)Nc1cc(Cl)cc(Cl)c1`, the melting point is 235 to 236 °C.

In the case of `CN(C)C(=S)SC(C[N+](=O)[O-])c1ccco1` (stereo not given), the melting point was in the range of 67 to 68 °C.

Take `O=C1NC(=S)SC1=Cc1ccccc1C(=O)O`: the melting point lay within 276 to 278 °C.

Consider `CN1C(=O)C(C)(C)N=C(c2ccccc2Cl)c2cc(N)ccc21`, for which the melting point was 85 to 110 °C.

`CS(=O)(=O)On1c(=O)c2cc3c(=O)n(OS(C)(=O)=O)c(=O)c3cc2c1=O` yielded a melting point greater than 300 °C.

`COc1ccc(N(C(=O)CN2C(=O)C(Cc3nn(Cc4ccccc4)c4ccccc34)(OC)C(=O)N(c3cccnc3)c3ccccc32)C(C)C)cc1` (stereo not given) showed a melting point of 223 to 224 °C.

Regarding `O=S(=O)(Nc1ccc(Cl)cc1-c1nc2ccc(S(=O)(=O)N3CCOCC3)cc2[nH]1)c1ccc(Cl)cc1`, the melting point was in the range of 225 to 228 °C.

Take `CC1(CCS)C(=O)N2CCCC(C(=O)O)N2C1=O` (stereo not given): the melting point fell in the range of 165 to 168 °C.

As to `O=C1c2cc(Cl)ccc2CN2CCC(=NO)C12` (stereo not given), the melting point was in the range of 130 to 136 °C.

`Nc1cc(-c2ccncc2)cc2nc(-c3ccco3)nn12` gave a melting point of 294 to 296 °C.

In turn, `O=C(O)CC1=C(Cc2ccc3ccccc3c2)C(=O)CCC1` had a melting point of 78 to 80 °C.

`CCCCC(=O)Nc1ccc(C(F)(F)F)c(-n2nc(CCCC)n(Cc3ccc(-c4ccccc4S(=O)(=O)NC(=O)c4ccccc4Cl)cc3F)c2=O)c1`: the melting point lay within 145 to 147 °C.

In turn, `Nc1c([N+](=O)[O-])sc2ccc([N+](=O)[O-])cc12` gave a melting point of 288 to 291 °C.

In turn, `CCOC(=O)Cc1cc(Br)c(C(=O)c2ccc(C)cc2)n1C` gave a melting point of 85 to 87 °C.

`COC(=O)c1cc(-c2ccncc2)sc1-c1ccncc1` gave a melting point of 133 to 135 °C.

`CCCn1c(=O)c2[nH]c(C(C)(C)C)nc2n(CCN(C)C(C)=O)c1=O` returned a melting point of 149 to 152 °C.

For `O=C(Nc1cc(Cl)c(O)c(Cl)c1)c1cc(F)ccc1O`, the melting point lay in the range of 227 to 229 °C.

`CCCCC#Cc1ccc(-c2cc(C(F)(F)F)nn2-c2ccc(S(C)(=O)=O)cc2)cc1` gave a melting point of 96 to 98 °C.

As for `COc1cc2[nH]c3nc[nH]c(=O)c3c2cc1OC`, the melting point is 296 to 298 °C.

Turning to `O=C1N=C(N2CCOCC2)SC1=Cc1cc(-c2ccc(O)c(C34CC5CC(CC(C5)C3)C4)c2)ccc1O`, the melting point lay in the range of 325 to 330 °C.

Take `CC(C)(C)OC(=O)Oc1ccc(C(=O)OCc2ccccc2)cc1`: the melting point was determined as 81 °C.

For `CCCCCC(=O)CCCCc1ccc(O)c(O)c1`, the melting point was in the range of 76 to 78 °C.

In the case of `CC1C(=O)NC(C)(C)N1C(=O)CNC(=O)CN1CC(O)CC1=O` (stereo not given), the melting point is 218 to 220 °C.

The molecule `O=S1(=O)Cc2ccc(Cl)cc2C(c2cccc(F)c2)=NN1` showed a melting point of 195 to 198 °C.

`Nc1cc(C(F)(F)F)cc(N)c1Cl` had a melting point of 96 °C.

`COc1ccc(C(=O)COc2ccc(NC3=NCCN3)cc2)cc1` displayed a melting point of 65.5 to 69 °C.

For the molecule `COc1ccc2c(c1)-c1c(nn(-c3ccccn3)c1O)CC2`, the melting point fell in the range of 116 to 117 °C.

Regarding `C=C(Cn1ccnc1)c1cc(F)ccc1OCc1ccc(Cl)cc1Cl`, the melting point lay in the range of 79 to 82 °C.

In turn, `O=C(O)C1C=CCn2c(=O)n(CCCS)c(=O)n21` (stereo not given) returned a melting point of 119 to 121 °C.

In turn, `CS(=O)(=O)c1ccc(-n2cnc(Cl)c2-c2ccccc2)cc1` registered a melting point of 145 to 146 °C.

The molecule `CCC(CC)(CC(=O)Nc1ccc2ccc(OCc3ccc4cccc(F)c4n3)cc2c1)C(=O)O` yielded a melting point of 141 to 142 °C.

`N#CCc1nc(N)nc(N)c1-c1ccc(Cl)cc1Cl` registered a melting point of 249 to 251 °C.

The values are drawn from a melting point compilation (Tetko et al.; mined from patent text by program, amines drawn as free bases though some values may be those of a salt).
